Tests used:
[1] = Acute toxicity (mice - LD 50); details: mouse, in vivo, ip; for mortality: at 400 mg/kg, read-out: Acute toxicity, % at 400 (mg/kg/i.p.), printed in the LD 50 column
[2] = tested on: mice; assay: Protection against death induced by intravenous bicuculline (anti-convulsion activity); assay type: in vivo; details: Mus musculus, ip, intravenous injection of 0.7 mg/kg of bicuculline, read-out: Efficient doses 50 - ED 50 protecting against death induced by Bicuculline
[3] = tested on: mice; assay: Phenylbenzoquinone test (analgesic activity); assay type: in vivo; details: Mus musculus, ip, read-out: Phenylbenzoquinone test - ED 50
Description: The analgesic activity was shown up on mice by interperitoneal injection of the compounds of formula (I) and their salts using the phenylbenzoquinone test according to the method described by E. SIEGMUND in Proced. Soc. Exp. Biol. and Med. 95, 729 (1957).

## O=C1OC2(CCCC2)c2ccccc21 [compound 23]
[1]
  LD50: > 400 mg/kg
[2]
  ED50: 76 mg/kg

## CN1CCCC12SC(=O)c1cc3ccccc3cc12 (stereo not shown) [compound 42]
[1]
  LD50: > 400 mg/kg
[2]
  ED50: 34 mg/kg

## COc1cc2c(cc1OC)C1(CCCN1C)SC2=O (stereo not shown) [compound 10]
[1]
  LD50: > 400 mg/kg
[2]
  ED50: 30 mg/kg

## CN1CCCC12SC(=O)c1ccccc12 (stereo not shown) [Code number 1]
[1]
  LD50: 400 mg/kg
[2]
  ED50: 7 mg/kg
[3]
  ED50: 30 mg/kg

## CN1CCCC12OCc1cc(Cl)ccc12 (stereo not shown) [compound 43]
[1]
  LD50: > 400 mg/kg
[2]
  ED50: 27.5 mg/kg
[3]
  ED50: 30 mg/kg

## CCCCN1CCCC12SC(=O)c1cc(Cl)ccc12 (stereo not shown) [compound 35]
[1]
  mortality: 60%
[2]
  ED50: 26 mg/kg

## O=C1SC2(CCCN2c2ccc(Cl)cc2)c2ccccc21 (stereo not shown) [compound 39]
[1]
  LD50: > 400 mg/kg
[2]
  ED50: 62 mg/kg

## O=C1SC2(CCCN2c2ccccc2)c2ccccc21 (stereo not shown) [compound 37]
[1]
  LD50: > 400 mg/kg
[2]
  ED50: 100 mg/kg

## CN1CCCC12OCc1ccccc12 (stereo not shown) [compound 21]
[1]
  LD50: 275 mg/kg
[2]
  ED50: 15 mg/kg
[3]
  ED50: 100 mg/kg

## CC(C)CN1CCCC12SC(=O)c1cc(Cl)ccc12 (stereo not shown) [compound 36]
[1]
  LD50: > 400 mg/kg
[2]
  ED50: 30 mg/kg

## CCN1CCCC12SC(=O)c1cc(Cl)ccc12 (stereo not shown) [compound 7]
[1]
  LD50: > 400 mg/kg
[2]
  ED50: 10 mg/kg

## CN1CCCC12SCc1cc(Cl)ccc12 (stereo not shown) [compound 45]
[1]
  LD50: > 400 mg/kg
[2]
  ED50: 15 mg/kg

## CN1CCCC12SCc1ccccc12 (stereo not shown) [compound 22]
[1]
  LD50: 290 mg/kg
[2]
  ED50: 34 mg/kg

## O=C1SC2(CCCN2c2ccc(Cl)cc2)c2ccc(Cl)cc21 (stereo not shown) [compound 40]
[1]
  LD50: > 400 mg/kg
[2]
  ED50: 100 mg/kg

## CCCN1CCCC12SC(=O)c1ccccc12 (stereo not shown) [Code number 4]
[1]
  LD50: > 400 mg/kg
[2]
  ED50: 47 mg/kg
[3]
  ED50: 35 mg/kg

## CN1CCCCC12SC(=O)c1ccccc12 (stereo not shown) [compound 2]
[1]
  LD50: > 400 mg/kg
[2]
  ED50: 100 mg/kg
[3]
  ED50: 50 mg/kg

## CCCN1CCCC12SC(=O)c1cc(Cl)ccc12 (stereo not shown) [compound 34]
[1]
  mortality: 40%
[2]
  ED50: 11 mg/kg

## CN1CCCC12SC(=O)c1cc(Cl)ccc12 (stereo not shown) [compound 6]
[1]
  LD50: > 400 mg/kg
[2]
  ED50: 8 mg/kg

## CN1CCCC12SC(=O)c1ccc(Cl)cc12 (stereo not shown) [compound 5]
[1]
  LD50: > 400 mg/kg
[2]
  ED50: 80 mg/kg

## CN1CCCC12OC(c1ccccc1)c1ccccc12 (stereo not shown) [compound 44]
[1]
  LD50: > 400 mg/kg
[2]
  ED50: 45 mg/kg
[3]
  ED50: 64 mg/kg

## CN1CCCC12SC(=O)c1cc(Br)ccc12 (stereo not shown) [compound 41]
[1]
  LD50: > 400 mg/kg
[2]
  ED50: 29.5 mg/kg

## O=C1SC2(CCCN2c2ccccc2)c2ccc(Cl)cc21 (stereo not shown) [compound 38]
[1]
  LD50: > 400 mg/kg
[2]
  ED50: 56 mg/kg

## COc1ccc2c(c1)C1(CCCN1C)SC2=O (stereo not shown) [compound 8]
[1]
  LD50: > 400 mg/kg
[2]
  ED50: 100 mg/kg

## CN1CCCC12SC(=O)c1cc(F)ccc12 (stereo not shown) [compound 16]
[1]
  LD50: > 400 mg/kg
[2]
  ED50: 25 mg/kg

## COc1ccc2c(c1)C(=O)SC21CCCN1C (stereo not shown) [compound 9]
[1]
  LD50: > 400 mg/kg
[2]
  ED50: 40 mg/kg

## S=C1OC2(CCCC2)c2ccccc21 [compound 24]
[1]
  LD50: > 400 mg/kg
[2]
  ED50: 63 mg/kg
[3]
  ED50: 46 mg/kg

## CCN1CCCC12SC(=O)c1ccccc12 (stereo not shown) [compound 3]
[1]
  LD50: > 400 mg/kg
[2]
  ED50: 26 mg/kg

Source: US4395416A, “1-Spiro isobenzofuranic and 1-spiro isobenzothiophenic derivatives the process for preparing the same and their use in therapeutics” (Delalande S.A., priority 1981, dated 1983)
